Data from US20070071833A1, “Fungicidal mixtures for controlling rice pathogens” (BASF Aktiengesellschaft, priority 2003, published 2007).

System: Cochliobolus miyabeanus
Experiment: activity against brown spot of rice caused by Cochliobolus miyabeanus, protective application (potted rice seedlings)
Type: in vivo
Conditions: individual active compound, rice cultivar Tai-Nong 67, protective spray, evaluated after six days
Procedure: The active compounds, separately or jointly, were prepared as a stock solution with 0.25% by weight of active compound in acetone or DMSO. 1% by weight of the emulsifier Uniperol® EL (wetting agent having emulsifying and dispersing action based on ethoxylated alkylphenols) was added to this solution, and the solution was diluted with water to the desired concentration.
Use example—activity against brown spot of rice caused by Cochliobolus miyabeanus, protective application
Leaves of potted rice seedlings of the cultivar “Tai-Nong 67” were sprayed to runoff point with an aqueous suspension of the concentration of active compound stated below. The next day, the plants were inoculated with an aqueous spore suspension of Cochliobolus miyabeanus. The test plants were then placed in climatized chambers at 22-24° C. and 95-99% relative atmospheric humidity for six days. The extent of the development of the infection on the leaves was then determined visually.
Evaluation was carried out by determining the percentage of infected leaf area. These percentages were converted into efficacies.
The efficacy (E) is calculated as follows using Abbot's formula: E=(1−α/β)·100 • α corresponds to the fungicidal infection of the treated plants in % and • β corresponds to the fungicidal infection of the untreated (control) plants in %
An efficacy of 0 means that the infection level of the treated plants corresponds to that of the untreated control plants; an efficacy of 100 means that the treated plants were not infected.
The expected efficacies of mixtures of active compounds are determined using Colby's formula (R. S. Colby, Weeds, 15, 20-22, 1967) and compared with the observed efficacies.
Colby's formula: E=x+y−x·y/100 • E expected efficacy, expressed in % of the untreated control, when using the mixture of the active compounds A and B at the concentrations a and b • x efficacy, expressed in % of the untreated control, when using the active compound A at the concentration a • y efficacy, expressed in % of the untreated control, when using the active compound B at the concentration b

## CC1CCN(c2c(-c3c(F)cc(F)cc3F)c(Cl)nc3ncnn23)CC1 [I, 5-chloro-7-(4-methylpiperidin-1-yl)-6-(2,4,6-trifluorophenyl)-[1,2,4]tri-azolo[1,5-a]pyrimidine]
1 ppm in the spray liquor
  Efficacy in % of the untreated control: 4%
4 ppm in the spray liquor
  Efficacy in % of the untreated control: 28%

## S1SSSSSSS1 [II (sulfur), sulfur]
1 ppm in the spray liquor
  Efficacy in % of the untreated control: 4%
4 ppm in the spray liquor
  Efficacy in % of the untreated control: 4%

## CC1CCN(c2c(-c3c(F)cccc3F)c(Cl)nc3ncnn23)CC1 [comparative compound A]
1 ppm in the spray liquor
  Efficacy in % of the untreated control: 28%
4 ppm in the spray liquor
  Efficacy in % of the untreated control: 40%

## C[C@H](Nc1c(-c2c(F)cc(F)cc2F)c(Cl)nc2ncnn12)C(F)(F)F [comparative compound B]
1 ppm in the spray liquor
  Efficacy in % of the untreated control: 0%
4 ppm in the spray liquor
  Efficacy in % of the untreated control: 16%
